In patent US10765747B2 (SWEDISH ORPHAN BIOVITRUM AB (PUBL), priority 2004, dated 2020):
Like-named read-outs stand apart in the source and are kept apart here.

Columns and labels:
IL-1ra [1] = molecular target: T1, IL-1ra (Homo sapiens, UniProt P18510); details: for reduction in the rate of aggregation of IL-1ra: 10 mM accessory molecule
Method: The rate of aggregation was determined as the slope of the linear region of the saturation curve calculated using the SoftMax Pro program (Molecular Devices).

[2] = pH 6.5 and 39° C., estimated from literature-reported pKas
[3] = molecular target: T2, anion binding site on IL-1ra (Homo sapiens, UniProt P18510); test: biochemical; details: K^dL, Kd of citrate (y-intercept of K^dLapp plot)
Source text: (§2) After spinning, about half of the solution passed through the filter as filtrate, while the remaining solution remained above the filter as retentate.
(§3) K^dL is the Kd for ligand binding to protein and is equal to the concentration of P (free protein) times the concentration of L (free ligand), divided by the concentration of PL (protein bound to ligand). K^dX is the Kd for competitive anion binding to protein and is equal to the concentration of P (free protein) times the concentration of X (free competing anion), divided by concentration of PX (protein bound to competing anion).
(§4) By replacing the (PX) term with (Xfree)(Pfree)/K^dX, which is derived from the equilibrium equation shown above, the expression for K^dLapp can be reduced to: K^dLapp=K^dL[1+(Xfree/K^dX)] Thus, if K^dLapp is plotted versus Xfree, the y-intercept will be equal to K^dL and the slope will be equal to K^dL/K^dX. Rearranging, K^dX will be equal to the y-intercept divided by the slope.
(§5) The concentration of free protein is calculated to be the total concentration of protein in the sample minus the concentration of bound protein (which is equal to the concentration of bound ligand). […] In other words, Xfree=Xtotal−ΔXbound as Xtotal is increased.

IL-1ra [4] = molecular target: T1, IL-1ra; test: Citrate binding to IL-1ra (spin column filtration, HPLC, Scatchard plot)
IL-1ra [5] = molecular target: T1, IL-1ra; test: Derivatization of IL-1ra with methyl acetyl phosphate (MAP) in various buffers, reverse-phase HPLC; set-up: additional N-terminal methionine (not a tag proper); host or cells: E. coli (stated for anakinra in the background); details: for rate of derivatization of IL-1ra with MAP compared with phosphate buffer: pH 6.3, 6.5, 6.7; for rate of derivatization of IL-1ra with MAP in 20 mM compared with 10 mM buffer: pH 6.5
Method: IL-1ra was derivatized with MAP in the presence of citrate or phosphate as follows. […] The reaction was incubated at 37° C. and 25 μl aliquots were taken using an HPLC autosampler at 0, 45, 90, 135, 180, 225, and 270 minutes. Each aliquot was analyzed by reverse-phase HPLC using an Agilent 110 HPLC equipped with a Jupiter 5u C4 300A reverse-phase HPLC column (4.6×250 mm, Phenomenex, Torrance, Calif.), an on-line UV detector and a temperature-controlled 100-well sample tray set at 37° C. The flow rate was set at 1 ml/min and the column was maintained at a temperature of 50° C. The column was pre-equilibrated for 15 min (flow rate 1 ml/min) with 65% buffer A (0.1% trifluoroacetic acid (TFA) in water) and 35% buffer B (90% acetonitrile, 0.1% TFA in water). After loading, the analytes were eluted using a gradient ramping from 35% to 50% buffer B (90% acetonitrile, 0.1% TFA in water) over 25 minutes.
(§1) The reaction was incubated at 37° C. and 25 μl aliquots were taken using an HPLC autosampler at 0, 45, 90, 135, 180, 225, and 270 minutes. Each aliquot was analyzed by reverse-phase HPLC as described above for derivatization in the presence of citrate.
as §1, with “citrate. […] Four weakly resolved peaks were identified in this experiment and are indicated on FIG. 15.” for “citrate.”
In particular, each chromatogram from FIG. 16A was deconvoluted using PeakFit™ (Systat Software Inc.). The area under the each of the deconvoluted peaks (peaks 1-4) at each time point (0, 45, 90, 135, 180, 225, and 270 minutes) was then integrated. Deconvoluted peaks 1-4 are labeled on FIG. 16B and the integrated area under each one is shown below. […] The integrated area of deconvoluted peak 4 at time points 0, 45, 90, 135, 180 minutes was then plotted against the incubation time of the reaction that produced that peak. The resulting line has a slope of 68.931 hour^−1.
The rate of derivatization of IL-1ra with MAP was then calculated for various experiments in the presence of various buffers and at various pHs, according to the methods discussed above.

[6] = molecular target: T2, anion binding site on IL-1ra; details: for Kd: read-out: K^dX, Kd for competing anion binding to the anion binding site of IL-1ra, competition with 10 mM citrate, 1 mM IL-1ra, pH 6.5, 70 mM NaCl
Source text: as §2, §3, §4, §5

[7] = pH 6.5 and 39° C.; cited from earlier work
[8] = pH 6.5, 29° C., IL-1ra 140 mg/ml

T2 sequence (P18510 with tags, fused parts or gaps): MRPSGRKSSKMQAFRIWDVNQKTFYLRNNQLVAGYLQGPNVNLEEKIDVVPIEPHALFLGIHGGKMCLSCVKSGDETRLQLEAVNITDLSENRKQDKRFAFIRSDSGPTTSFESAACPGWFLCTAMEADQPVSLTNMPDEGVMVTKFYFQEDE
T1 sequence (P18510 with tags, fused parts or gaps): as above

O=C(O)CC(O)(CC(=O)O)C(=O)O [citrate]
reduction in the rate of aggregation of IL-1ra (IL-1ra [1]; [8]): ~90%
predicted negative charges [2]: three negative charges
Kd ([3]; phosphate competition experiment, data not shown): 5 mM
Kd ([3]; pyrophosphate competition experiment): 3.89 mM
Kd (IL-1ra [4]): 3.85 mM
number of binding sites on IL-1ra (x-intercept of Scatchard plot) (IL-1ra [4]; pH 6.5, 70 mM NaCl): 0.94
rate of derivatization of IL-1ra with MAP compared with phosphate buffer (IL-1ra [5]): slower
rate of derivatization of IL-1ra with MAP in 20 mM compared with 10 mM buffer (IL-1ra [5]): slower

O=P(O)(O)OP(=O)(O)O [pyrophosphate]
reduction in the rate of aggregation of IL-1ra (IL-1ra [1]; [8]): ~90%
rate of aggregation of IL-1ra with increasing anion concentration, compared with phosphate buffer (IL-1ra [1]; 1 to 125 mM, 29° C.): decreased more rapidly
concentration at which the reduction in the rate of aggregation leveled off (IL-1ra [1]; [8]): 20 mM
predicted negative charges [2]: between two and three negative charges
competing with citrate for the citrate binding site on IL-1ra, compared with phosphate ([6]; 0-20 mM competing anion, 10 mM citrate): more effective
Kd [6]: 2.99 mM
estimated pKa, first ionizable hydrogen [7]: 0.83
estimated pKa, fourth ionizable hydrogen [7]: 9.46
estimated pKa, second ionizable hydrogen [7]: 2.26
estimated pKa, third ionizable hydrogen [7]: 6.72
rate of derivatization of IL-1ra with MAP compared with phosphate buffer (IL-1ra [5]): slower
rate of derivatization of IL-1ra with MAP in 20 mM compared with 10 mM buffer (IL-1ra [5]): slower

IL-1ra: Purified human recombinant interleukin-1 receptor antagonist having the amino acid sequence of SEQ ID NO: 5 (anakinra)
rate of derivatization of IL-1ra with MAP (slope of integrated area of deconvoluted peak 4 versus incubation time) (IL-1ra [5]; 10 mM citrate, pH 6.5, 37° C., time points 0-180 minutes): 68.931 h⁻¹

phosphate
reduction in the rate of aggregation of IL-1ra (IL-1ra [1]; [8]): ~20%
predicted negative charges [2]: predominantly one negative charge
Kd [6]: 12.6 mM
level of derivatization with MAP at all positions except the N-terminal amine, compared with citrate or pyrophosphate (IL-1ra [5]; 10 mM buffer, 270 minutes, 37° C.): greater
extent of derivatization of IL-1ra with MAP compared with citrate (IL-1ra [5]; 10 mM buffer, pH 6.3, 6.5 or 6.7, 5.5 hours): greater extent
